Measured values reported in patent US20200055835A1, “USE OF TRICYCLIC SESQUITERPENE LACTONES IN THE TREATMENT OF OBESITY AND RELATED DISEASES AND NON-THERAPEUTIC TREATABLE CONDITIONS” (NEEM BIOTECH LTD., priority 2010, published 2020).

Tests used:
[1] = Feeding experiment: body weight and body fat (DEXA) in rats; assay type: in vivo, Sprague-Dawley (SD) rats; conditions: high fat diet (34% fat), 0.1% by weight in chow, 8 weeks, male SD rats
Experimental: For the present experiments, the compound to be tested is added to the feed of the individuals. This is beneficial against enforcement because it allows a validation of the acceptance of the test compounds. The experiments are performed with negative control and are correlated to a commercial slimming product.
Cynaropicrin is tested using six weeks old, none-adult, male Sprague-Dawley (SD) rats (Charles Rivers, Sulzfeld, Germany). Cynaropicrin is mixed with the chow (ssniff Spezial-diäten GmbH, Soest, Germany) to a final concentration of 0.1% by weight and fed for 8 weeks in two different treatment regimes: • Balanced diet (standardised to 4% fat) • High fat diet (standardised to 34% fat)
Controls obtain the same diet without Cynaropicrin or other anti-obesity additives.
Body weight is studied and analysed every week, body fat and mineral bone density are analysed by DEXA (scanner, see Example 3) in week 0, in week 4 and at the last day of the study in week 8. Furthermore, the white body fat weight is determined after removal of the tissue at the end of the feeding study in week 8. For the DEXA measurements the same apparatuses and methodology are used as described in example 3.
The GE Lunar Piximus2 DEXA scanner (GE Healthcare, Munich, Germany) gives accurate information on differences in body composition in mice (see Nagy, T R and Clair, A-L. Precision and accuracy of dual-energy X-ray absorptiometry for determining in vivo body composition in mice. Obesity Res. 2000; 8:392-398; Brommage Am J Physiol Endocrinol Metab 285: E454-E459, 2003). Validation and calibration of DEXA body composition in mice; Sarah L. Johnston, Wendy L. Peacock, Lynn M. Bell, Michel Lonchampt, and John R. Speakman, Obesity Research 2005 13 (9), 1558). One scanning procedure takes up to five minutes per individual and provides data on fat mass, lean mass, bone mineral content and bone mineral density. The method is validated against Soxhlet (SOX) fat extraction in mice and a strong correlation (r 2>0.95) between fatDEXA and fatSOX is determined (published information).
As a control experiment within the high fat diet, epigallocatechin-3-gallate (EGCG, Chengdu Purification Technology Development Co. Ltd, Chengdu, China) in pure form is used as the standard for comparison of potency and differentiation as well as benchmark against competing compounds or formulations against obesity. […] EGCG is marketed as a functional food ingredient claiming an anti-obesity effect (Wolfram, S et al. Mol Nutr Food Res 2006; 50(2):176-87; Wolfram, S et al. Ann Nutr Metab 2005; 49(1):54-6, Klaus, S et al. Int J Obes 2005; 29(6):615-23; Hill, A M et al. J Am Coil Nutr. 2007; 26(4):396S-402S). The final concentration of EGCG used is 0.1%, too.

[2] = Pathological parameters: macroscopic organ inspection and kidney histo-pathology; assay type: in vivo; conditions: rat feeding study
Experimental: Main organs are analysed macroscopically for safety reasons and to investigate the effects of the different diets on these organs (e.g. induction of […] (“fatty”) livers etc.). After organ removal, macroscopic inspections of e.g. heart, kidneys; GI tract, spleen, liver are performed.

[3] = Clinical blood chemistry of the rat study; assay type: in vivo; conditions: rats under high fat (HF) diet
Experimental: The following parameters are involved in energy metabolism and thereby related to the metabolic syndrome. They are determined from blood samples taken in week 1; 4; and 8 of the rat study: Total cholesterol levels; HDL, LDL, TG (triglycerides), and glucose. Furthermore, the activity of liver enzymes such as ALT (alanin-aminotransferase), AST (aspartat-aminotransferase), and AP (alkaline phosphatase), as well as the concentration of Bilirubin, Albumin, Creatin Kinase, and electrolytes (Na+; K+; Ca++; Cl−) are determined as safety markers to exclude any toxic effects such as e.g. liver damage.
Blood samples are taken from the sublingual vein and collected in Li-Heparin coated vials. The blood samples are stored on ice for a short period of time before it is centrifuged for 15 minutes at 8° C. and 3500 rpm. The supernatant plasma is transferred in a reaction tube and stored at −80° C. until clinical chemistry measurements are performed. All measurements are conducted using an Olympus AU 400 at the gene centre of the LMU Munich, working group of Prof. Wolf. Statistical calculations are performed with Statistika (Statsoft (Europe) GmbH, Hamburg, Germany) und Sigma Stat (Jandel Scientific, San Raphael, Calif., USA).

[4] = olive oil-loaded mice, 6 hours; cited from earlier work
[5] = system: Mealworm (Tenebrio molitor); conditions: cited from earlier work

| Molecule | body fat accumulation (DEXA) in comparison to the control groups [1] | body weight accumulation in comparison to the control groups [1] | serum TG, long term [4] | antifeeding activity [5] | larval growth [5] | lipid levels in blood [5] | also measured |
| --- | --- | --- | --- | --- | --- | --- | --- |
| epigallocatechin-3-gallate [EGCG, reference compound] | No effects | No effects |  |  |  |  |  |
| C=C(CO)C(=O)OC1CC(=C)C2CC(O)C(=C)C2C2OC(=O)C(=C)C12 (centres unmarked) [Cynaropicrin, (8-hydroxy-3,6,9-trimethylidene-2-oxo-3a,4,5,6a,7,8,9a, 9b-octahydroazuleno[4,5-b]furan-4-yl) 2-(hydroxymethyl)prop-2-enoate] | reduced body fat accumulation | reduced body weight accumulation | increase |  |  |  | macroscopic inspection of main organs (heart, kidneys, GI tract, spleen, liver) ([2]; after organ removal): no significant alterations; histo-pathological analysis of the kidneys (morphology and function) [2]: does not result in any observation of an adverse effect; total cholesterol:HDL/LDL ratio compared to the control group (HF only) [3]: improved |
| C=C1C(=O)O[C@H]2[C@H]1[C@@H](OC(=O)[C@]1(C)CO1)CC(=C)[C@@H]1C[C@H](O)[C@]3(CO3)[C@H]21 [repin, reference compound] |  |  |  | antifeeding activity | inhibition of larval growth | no effect |  |
| C=C(C)C(=O)O[C@H]1CC(=C)[C@@H]2C[C@H](O)C(=C)[C@@H]2[C@H]2OC(=O)C(=C)[C@@H]21 [aguerine B, reference compound] |  |  | increase |  |  |  |  |
| C=C1CC(O)C2C(=C)C(=O)OC2C2C(C)C(=O)CC12 (centres unmarked) [Grossheimin, 4-hydroxy-9-methyl-3,6-dimethylene-3a,4,5,6a,7,9,9a,9b-octahydroazuleno[5,4-d]furan-2,8-dione] |  |  |  | no anti-feeding | inhibition of larval growth | no effect | absorption of digested food constituents [5]: little decrease; efficiency in digesting [5]: little decrease |
